These results are taken from patent US20160106711A1, “3-3-Di-Substituted-Oxindoles as Inhibitors of Translation Initiation” (President and Fellows of Harvard College, priority 2012, published 2016).

One assay deals with CHOP mRNA. The experiment in a line: Real time PCR of CHOP mRNA expression, CRL-2351 cells. Type of assay: cell-based, human. On the procedure: In order to validate the compounds described herein as modifiers of the abundance of the eIF2•GTP•Met-tRNAi ternary complex, the effects of the compounds on endogenous cellular markers of the ternary complex were determined. For example, reducing amount of the ternary complex increases translation of ATF-4, which results in elevated expression of CHOP mRNA and protein. Therefore, expression of endogenous CHOP mRNA and CHOP protein in KLN-tTA/pBISA-DL^(ATF-4) cells were utilized as secondary assays to validate the compounds as modifiers of the eIF2•GTP•Met-tRNAi ternary complex.
Total RNA was extracted with TaqMan Gene Expression Cells-to-Ct™ Kit (Applied Biosystems, Branchburg, N.J.) and DNAse I treated according to manufacturer's recommendations. 1-Step Real-time PCR was performed on a Bio-Rad iCycler IQ5 system by using B-R 1-Step SYBR Green qRT-PCR Kit (Quanta BioSciences, Gaithersburg, Md.) according to manufacturer's specifications. The thermal cycler conditions were as follows: 10 minutes at 50° C., hold for 5 minutes at 95° C., followed by 2-step PCR for 45 cycles of 95° C. for 15 seconds followed by 60° C. for 30 seconds. All PCRs were performed in triplicate in at least two independent PCR runs. […] To calibrate the results, all the transcript quantities were normalized to 18S rRNA (18S ribosomal RNA-like mRNA in mouse). […]
In general terms: In qPCR the cycle at which signal appears reflects the starting amount.

The next assay deals with KLN. As to the kind of experiment: Cell growth assay (sulforhodamine B), KLN cells. Type of assay: cell-based, mouse. Conditions: Mus musculus, 120 h, 5 days, SRB.
In another assay the test system is CRL-2813. As to the kind of experiment: Cell growth assay (sulforhodamine B), CRL-2813 cells. Type of assay: cell-based, human. The following applies: Homo sapiens, CRL2813, 120 h, 5 days, SRB. Put shortly:
(§1)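 Cells were exposed for 5 days to 0.54-6 µM compound, then TCA-fixed and stained with sulforhodamine B, read at 490 nm. Growth was expressed as %T/C with time-zero correction. IC50 is the concentration giving 50% growth inhibition.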

In the next assay the test system is CRL-2351. As to the kind of experiment: Cell growth assay (sulforhodamine B), CRL-2351 cells. Type of assay: cell-based, human. Conditions: Homo sapiens, 120 h, 5 days, SRB. Put shortly: as §1
Assay [1] relates to eIF2•GTP•Met-tRNAi ternary complex. The experiment in a line: Ternary complex assay (ATF-4 assay), dual luciferase firefly/renilla ratio. Format: cell-based, mouse. Conditions: Mus musculus, at 40 uM, read-out: ATF-4 Xmax @ 40 μM. In short, it runs like this:
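Stable KLN cancer cells expressing tTA carry a bidirectional reporter in which firefly luciferase sits behind the ATF-4 5′UTR and renilla luciferase behind a plasmid-derived 5′UTR only. Lysates were read by Dual-Glo luciferase assay, and the output is the firefly/renilla signal ratio.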

Turning to `O=C1Nc2ccccc2C1(c1cc(Cl)ccc1O)c1cc(Cl)ccc1O` [HY033, 3,3-Bis(5-Chloro-2-Hydroxyphenyl)Indolin-2-One], the “CHOP PCR (μM) 2351” value is 7.8/20 uM in the assay on CHOP mRNA (CRL-2351, 20 uM) and 18.5/40 uM with CHOP mRNA (CRL-2351, 40 uM). Further, the IC50 with KLN stood at 15.2 ± 1.6 µM; with CRL-2813, 4.2 ± 0.2 µM; with CRL-2351 it was 6.8 ± 0.8 µM. In addition, in assay [1], the maximal fold induction at 40 µM is 6.14 ± 0.63.

One may read the IC50 as the concentration that inhibits the measured activity by half.
